For the test, the system named is cytokine-stimulated human umbilical vein endothelial cells. In words: Cell Adhesion Assay: adherence of fluorescently-labelled leukocytes to endothelial cell monolayers. The test is classed as cell-based. The note with it: inhibition of cytokine-stimulated adhesion minus basal adhesion, calcein-AM labelled leukocytes on HUVEC monolayers. On the procedure: The antiadhesion activity of compounds of the invention was determined using a modification of the previously described method, Jurgensen, C. H. et. al., J. Immunol. 144: 653-661. The adhesiveness of cytokine-stimulated human umbilical vein endothelial cells was assessed by quantitating the adherence of fluorescently-labelled (calcein-AM, Molecular Probes, Eugene, Oreg.) leukocytes to endothelial cell monolayers. Activity was determined by calculating inhibition of cytokine-stimulated adhesion minus the basal adhesion (unstimulated).

Regarding `COCCOCCOCCOCCOCCOCCOCCOCCOCCNC(=O)c1ccc(-c2nc3c(c(=O)n(CC4CCCCC4)c(=O)n3CC3CCCCC3)n2C)cc1` [Example 94, 4-(1,3-Bis(cyclohexylmethyl)-2,3,6,7-tetrahydro-2,6-dioxo-7-methyl-1H-purin-8-yl)benzoic Acid Nonaethylene Glycol Methyl Ether Amide], the IC50 is 220 ± 87 nM.

Turning to `COCCOCCOCCN(CCOCCOCCOC)C(=O)/C=C/c1ccc(-c2nc3c(=O)n(CC4CCCCC4)c(=O)n(CC4CCCCC4)c3[nH]2)cc1` [Example 95, (E)-4-(1,3-bis(cyclohexylmethyl)-1,2,3,6-tetrahydro-2,6-dioxo-9H-purin-8-yl)cinnamic Acid N,N-Bis Triethylene Glycol Methyl Ether Amide], the IC50 was 1700 ± 690 nM.

With `COCCOCCOCCOCCOCCOCCOCCOCCOCCOCc1ccc(-c2nc3c([nH]2)c(=O)n(CC2CCCCC2)c(=O)n3CC2CCCCC2)cc1` [Example 96, 1,3-Bis(cyclohexylmethyl)-8-[4-(2,5,8,11,14,17,20,23,26,29-decaoxatriacont-1-yl)phenyl]-3,7-dihydro-1H-purine-2,6-dione], the IC50 (Homo sapiens) is 49 ± 16 nM.

With `COCCOCCOCCOC(=O)/C=C/c1ccc(-c2nc3c(c(=O)n(CC4CCCCC4)c(=O)n3CC3CCCCC3)n2CCOCCOCCOC)cc1` [Example 97], the IC50 is above 1000 nM.

Take `COCCOCCOCCOCCOCCOCCOCCOCCOCCOC(=O)/C=C/c1ccc(-c2nc3c([nH]2)c(=O)n(CC2CCCCC2)c(=O)n3CC2CCCCC2)s1` [Example 98, (E)-3-[5-[1,3-bis(cyclohexylmethyl)-2,3,6,7-tetrahydro-2,6-dioxo-1H-purin-8-yl]-2-thienyl]-2-propenoic Acid Nonaethylene Glycol Methyl Ether Ester]: the IC50 is 37 ± 23 nM.

Take `COCCOCCOCCOCCOCCOCCOCCOCCOCCNC(=O)c1ccc(-c2nc3c(=O)n(CC4CCCCC4)c(=O)n(CC4CCCCC4)c3[nH]2)nc1` [Example 99, 6-(1,3-Bis(cyclohexylmethyl)-1,2,3,6-tetrahydro-2,6-dioxo-9H-purin-8-yl)nicotinic Acid Nonaethylene Glycol Methyl Ether Amide]: the IC50 is 77 ± 29 nM.

Take `COCCOCCOCCOCCOCCOCCOCCOCCOCCN(CC1CC1)C(=O)/C=C/c1ccc(-c2nc3c(=O)n(CC4CCCCC4)c(=O)n(CC4CCCCC4)c3[nH]2)cc1` [Example 100, (E)-4-(1,3-Bis(cyclohexylmethyl)-1,2,3,6-tetrahydro-2,6-dioxo-9H-purin-8-yl)cinnamic Acid N-cyclopropylmethyl Nonaethylene Glycol Methyl Ether Amide]: the IC50 is 25 ± 8 nM.

Take `O=C(/C=C/c1ccc(-c2nc3c(=O)n(CC4CCCCC4)c(=O)n(CC4CCCCC4)c3[nH]2)cc1)NCCOCCOCCOCCOCCOCCOCc1ccccc1` [Example 101, (E)-4-(1,3-Bis(cyclohexylmethyl)-1,2,3,6-tetrahydro-2,6-dioxo-9H-purin-8-yl)cinnamic Acid Hexaethylene Glycol Benzyl Ether Amide]: the half-inhibitory concentration (IC50) was 340 ± 94 nM.

`COCCOCCOCCOCCOCCOCCOCCOC(=O)/C=C/c1ccc(-c2nc3c(c(=O)[nH]c(=O)n3CC3CCCCC3)n2C)cc1` [Example 103, (E)-4-[(3-Cyclohexylmethyl)-2,3,6,7-tetrahydro-2,6-dioxo-7-methyl-1H-purin-8-yl]cinnamic Acid Heptaethylene Glycol Methyl Ether Ester]: the IC50 was 230 ± 110 nM.

`COCCOCCOCCOCCOCCOCCOCCOCCOCCOC(=O)/C=C/c1ccc(-c2nc3c(c(=O)[nH]c(=O)n3CC3CCCCC3)n2C)cc1` [Example 104, (E)-4-[(3-Cyclohexylmethyl)-2,3,6,7-tetrahydro-2,6dioxo-7-methyl-1H-purin-8-yl]cinnamic Acid Nonaethylene Glycol Methyl Ether Ester]: the IC50 is 86 ± 54 nM.

In general, IC50 refers to the midpoint of a concentration-inhibition curve.

Source of the values: patent US6608069B1, “Phenyl xanthine derivatives” (SmithKline Beecham Corporation, priority 1998, dated 2003).
